As usually defined, the inhibition is how much of the control response was suppressed. By inhibition in vivo is commonly meant the change of the read-out against control, counted positive when it falls. As a reminder, the Inhibition is the drop in the measured response relative to a control, in per cent.

Molecules are shown by their SMILES.

inhibition, inhibition in vivo and Inhibition data for 44 molecules are collected here from ChEMBL document CHEMBL1129782, “Azole phenoxy hydroxyureas as selective and orally active inhibitors of 5-lipoxygenase” (J Med Chem, 1996).

The species named for experiment [1] is Homo sapiens. Briefly: Inhibition of LTB4 biosynthesis at 1 uM, in calcium ionophore-stimulated human whole blood leukocyte (HBL) assay. Format: functional.
In experiment [2] the target is T1, Polyunsaturated fatty acid 5-lipoxygenase (Rattus norvegicus) (UniProt P12527).
T1 sequence (whole entry): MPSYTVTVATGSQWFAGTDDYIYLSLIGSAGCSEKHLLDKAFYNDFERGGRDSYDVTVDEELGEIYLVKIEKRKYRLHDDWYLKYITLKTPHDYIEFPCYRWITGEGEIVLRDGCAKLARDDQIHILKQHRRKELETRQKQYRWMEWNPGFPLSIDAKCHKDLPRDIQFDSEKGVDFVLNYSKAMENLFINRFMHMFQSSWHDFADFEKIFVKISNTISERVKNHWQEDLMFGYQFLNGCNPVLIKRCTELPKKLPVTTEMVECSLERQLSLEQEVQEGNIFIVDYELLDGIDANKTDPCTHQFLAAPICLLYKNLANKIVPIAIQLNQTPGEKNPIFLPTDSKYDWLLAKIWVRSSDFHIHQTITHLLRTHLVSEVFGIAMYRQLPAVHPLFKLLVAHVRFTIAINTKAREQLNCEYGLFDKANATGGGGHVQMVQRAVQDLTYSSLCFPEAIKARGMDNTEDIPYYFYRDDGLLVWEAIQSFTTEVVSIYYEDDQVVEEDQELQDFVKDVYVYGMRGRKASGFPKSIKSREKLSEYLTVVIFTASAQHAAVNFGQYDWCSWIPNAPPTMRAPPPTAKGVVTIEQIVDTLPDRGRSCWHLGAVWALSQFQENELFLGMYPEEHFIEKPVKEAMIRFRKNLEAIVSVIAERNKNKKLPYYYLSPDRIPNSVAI
In words: Ex vivo inhibitory activity at an peroral dose of 10 mg/Kg against LTB4 biosynthesis in rat blood, after pretreatment period of 6 hr. In kind it is functional.

The target in experiment [3] is T1, Polyunsaturated fatty acid 5-lipoxygenase (Rattus norvegicus). Briefly: Activity against LTB4 biosynthesis in the rat RPAR pleurisy model po (10 mg/kg). Format: functional, organism-based.
In experiment [4] the test system is Rattus norvegicus. Briefly: Ex vivo inhibitory activity at an peroral dose of 25 mg/Kg against LTB4 biosynthesis in rat blood, after pretreatment period of 3h. Format: functional. To be noted: po.
The target of experiment [5] is T1, Polyunsaturated fatty acid 5-lipoxygenase (Rattus norvegicus). Briefly: Ex vivo inhibitory activity at an peroral dose of 10 mg/Kg against LTB4 biosynthesis in rat blood, after pretreatment period of 3h. In kind it is functional.
Experiment [6] has as its system Rattus norvegicus. In words: Ex vivo inhibitory activity at an peroral dose of 5 mg/Kg against LTB4 biosynthesis in rat blood, after pretreatment period of 6 hr. In kind it is functional. To be noted: po.
In experiment [7] the test system is Rattus norvegicus. In words: Activity against LTB4 biosynthesis in the rat RPAR pleurisy model po (25 mg/kg). In kind it is functional.
The species entered for experiment [8] is Homo sapiens. In words: Compound at 10 uM was tested in vitro for the inhibition of LTB4 biosynthesis in calcium ionophore-stimulated human whole blood leukocyte (HBL) assay. In kind it is functional.

On to `NC(=O)N(O)Cc1cccc(OCCc2csc(-c3ccc(C(F)(F)F)cc3)n2)c1`, for which the inhibition at 1 µM in the experiment filed under Homo sapiens [1] amounted to 30%. The inhibition in experiment [2] was determined as 0%.
As for `Cc1oc(-c2ccccc2)nc1CCOc1ccc(CN(O)C(N)=O)cc1`, in the experiment filed under Homo sapiens [1], the inhibition at 1 µM was determined as 55%. Besides, the inhibition was 69% in experiment [3] and 0% in experiment [5]. For the same molecule, the inhibition in vivo at 25 mg/kg in the experiment on Rattus norvegicus [4] was 79%.
Regarding `NC(=O)N(O)Cc1ccc(OCCc2noc(-c3ccccc3)n2)cc1`, the inhibition at 1 µM in the experiment filed under Homo sapiens [1] came to 70%. For the same molecule, the inhibition in vivo at 5 mg/kg in the experiment with Rattus norvegicus [6] stood at 59%. The molecule further came in with an Inhibition with Rattus norvegicus [7] of 19%.
As for `COc1ccc(-c2nc(CCOc3ccc(CN(O)C(N)=O)cc3)c(C)o2)cc1`, the inhibition at 1 µM in the experiment filed under Homo sapiens [1] came out at 57%. The Inhibition in the experiment on Rattus norvegicus [7] amounted to 38%. Further, the inhibition in vivo at 25 mg/kg with Rattus norvegicus [4] is 32%.
On to `Cc1oc(-c2cccc(F)c2)nc1CCOc1ccc(CN(O)C(N)=O)cc1`, for which the inhibition at 1 µM in the experiment filed under Homo sapiens [1] was 63%. The inhibition in experiment [5] came to 80%.
For the molecule `Cc1oc(-c2cc(C(F)(F)F)cc(C(F)(F)F)c2)nc1COc1cccc(CN(O)C(N)=O)c1`, in the experiment listed under Homo sapiens [1], the inhibition at 1 µM was found to be 15%. In addition, in the experiment listed under Homo sapiens [8], the inhibition at 10 µM was found to be 57%.
`NC(=O)N(O)Cc1ccc(OCc2coc(-c3ccc(C(F)(F)F)cc3)n2)cc1`: the inhibition at 1 µM in the experiment listed under Homo sapiens [1] turned out to be 32%. Besides, in experiment [2], the inhibition amounted to 68%.
For `Cc1oc(-c2ccc(SC(F)(F)F)cc2)nc1CCOc1ccc(CN(O)C(N)=O)cc1`, in that order: 50% and 0%.
As to `Cc1oc(-c2ccccc2)nc1COc1ccc(CN(O)C(N)=O)cc1`, in the experiment filed under Homo sapiens [1], the inhibition at 1 µM is 50%. The inhibition was found to be 36% in experiment [3], 0% in experiment [2] and 84% in experiment [5]. Further, in the experiment on Rattus norvegicus [7], the Inhibition is given as 69%.
As for `COc1ccc(-c2nc(COc3ccc(CN(O)C(N)=O)cc3)cs2)cc1`, the inhibition at 1 µM in the experiment filed under Homo sapiens [1] worked out at 56%. Moreover, in experiment [2], the inhibition came out at 69%.
On to `NC(=O)N(O)Cc1ccc(OCCc2csc(-c3ccccc3)n2)cc1`, for which the inhibition at 1 µM in the experiment filed under Homo sapiens [1] stood at 19%.
On to `NC(=O)N(O)Cc1ccc(OCc2csc(-c3ccc(C(F)(F)F)cc3)n2)cc1`, for which the inhibition at 1 µM in the experiment listed under Homo sapiens [1] is 56%. Moreover, the inhibition in experiment [2] was 0%.
For `Cc1oc(-c2cccc(C(F)(F)F)c2)nc1COc1cccc(CN(O)C(N)=O)c1`, in that order: 51% and 0%.
As for `Cc1oc(-c2ccc(C(F)(F)F)cc2)nc1COc1cccc(CN(O)C(N)=O)c1`, in the experiment listed under Homo sapiens [1], the inhibition at 1 µM was found to be 48%. In experiment [3], this molecule displayed an inhibition of 59%. For the same molecule, in the experiment on Rattus norvegicus [6], the inhibition in vivo at 5 mg/kg was determined as 55%.
Take `Cc1oc(-c2ccccc2)nc1COc1cc(F)cc(CN(O)C(N)=O)c1`: the inhibition at 1 µM in the experiment listed under Homo sapiens [1] came to 70%. This molecule also registered an inhibition in experiment [3] of 16%. Further, the inhibition in vivo at 5 mg/kg with Rattus norvegicus [6] was 52%.
In the case of `Cc1oc(-c2ccc(C(F)(F)F)cc2)nc1CCOc1ccc(CN(O)C(N)=O)cc1F`, the inhibition at 1 µM in the experiment listed under Homo sapiens [1] is 36%.
`Cc1oc(-c2ccc(Cl)cc2)nc1COc1cccc(CN(O)C(N)=O)c1`: the inhibition at 1 µM in the experiment listed under Homo sapiens [1] is 77%. Further, the results for the inhibition in experiment [3] and in experiment [2] were 47% and 38%, respectively.
`NC(=S)N(O)Cc1ccc(OCc2csc(-c3ccc(Cl)cc3)n2)cc1`: in the experiment listed under Homo sapiens [1], the inhibition at 1 µM was determined as 57%. For the same molecule, the inhibition in vivo at 5 mg/kg with Rattus norvegicus [6] came to 0%.
With `Cc1oc(-c2ccc(C(F)(F)F)cc2)nc1COc1cc(F)cc(CN(O)C(N)=O)c1`, the inhibition at 1 µM in the experiment listed under Homo sapiens [1] came out at 15%. The inhibition at 10 µM in the experiment filed under Homo sapiens [8] is 85%.
Turning to `Cc1ccc(-c2nc(CCOc3ccc(CN(O)C(N)=O)cc3)c(C)o2)cc1`, the inhibition at 1 µM in the experiment listed under Homo sapiens [1] amounted to 40%. The inhibition in vivo at 5 mg/kg with Rattus norvegicus [6] was 0%. Also, in the experiment on Rattus norvegicus [7], the Inhibition was 48%.
For the molecule `Cc1oc(-c2ccc(C(F)(F)F)cc2)nc1COc1ccc(CN(O)C(N)=O)cc1`, the inhibition at 1 µM in the experiment listed under Homo sapiens [1] came to 34%. Besides, in experiment [3], the inhibition is 45%. Moreover, the inhibition in vivo at 5 mg/kg with Rattus norvegicus [6] worked out at 69%.
Take `Cc1oc(-c2ccccc2)nc1COc1ccc(CN(O)C(N)=O)cc1F`: in the experiment listed under Homo sapiens [1], the inhibition at 1 µM was 47%. For the same molecule, the Inhibition in the experiment on Rattus norvegicus [7] is 27%. For the same molecule, the inhibition in experiment [5] was 66%.
Consider `NC(=O)N(O)Cc1ccc(OCCc2csc(-c3ccc(C(F)(F)F)cc3)n2)cc1`, for which the inhibition at 1 µM in the experiment filed under Homo sapiens [1] was determined as 57%. The inhibition in vivo at 5 mg/kg in the experiment with Rattus norvegicus [6] is 0%.
Turning to `Cc1oc(-c2ccccc2)nc1COc1cccc(C(C)N(O)C(N)=O)c1` (centres undefined), in the experiment listed under Homo sapiens [1], the inhibition at 1 µM was determined as 10%. For the same molecule, in the experiment filed under Homo sapiens [8], the inhibition at 10 µM came to 80%.
For `NC(=O)N(O)Cc1ccc(OCc2coc(-c3ccccc3)n2)cc1`, the inhibition at 1 µM in the experiment listed under Homo sapiens [1] was found to be 58%. In addition, the inhibition in experiment [3] amounted to 60%. Moreover, the inhibition in vivo at 5 mg/kg in the experiment on Rattus norvegicus [6] is 60%.
Take `CCCCCCc1nc(CCOc2ccc(CN(O)C(N)=O)cc2)c(C)o1`: the inhibition at 1 µM in the experiment filed under Homo sapiens [1] came out at 44%.
The same measure, in the same setting: with `Cc1oc(-c2ccccc2)nc1CCOc1cccc(C(C)N(O)C(N)=O)c1` (centres undefined) the figure was 34%.
Turning to `Cc1oc(-c2ccccc2)nc1CCOc1ccc(CN(O)C(N)=O)cc1F`, in the experiment filed under Homo sapiens [1], the inhibition at 1 µM worked out at 71%. The same molecule registered an Inhibition in the experiment with Rattus norvegicus [7] of 58%. Besides, the inhibition in experiment [5] was determined as 52%.
With `Cc1oc(-c2ccccc2)nc1CCOc1cccc(CN(O)C(N)=O)c1`, the inhibition at 1 µM in the experiment filed under Homo sapiens [1] was found to be 51%. For the same molecule, the inhibition in experiment [5] stood at 0%.
Turning to `NC(=O)N(O)Cc1ccc(OCc2csc(-c3ccc(Cl)cc3)n2)cc1`, the inhibition at 1 µM in the experiment filed under Homo sapiens [1] is 71%. In experiment [2], the inhibition is 0%.
On to `Cc1oc(-c2ccccc2)nc1COc1ccc(C(C)N(O)C(N)=O)cc1` (centres undefined), for which the inhibition at 1 µM in the experiment listed under Homo sapiens [1] was 17%. For the same molecule, the inhibition at 10 µM in the experiment filed under Homo sapiens [8] came out at 57%.
For `Cc1oc(-c2ccccc2)nc1COc1ccc(CN(O)C(N)=O)cc1Cl`, the inhibition at 1 µM in the experiment filed under Homo sapiens [1] came out at 31%. Moreover, in experiment [5], the inhibition was determined as 69%.
The like results for `Cc1oc(-c2ccco2)nc1CCOc1ccc(CN(O)C(N)=O)cc1` were, in that order, 64% and 41%.
On to `NC(=S)N(O)Cc1cccc(OCc2coc(-c3ccc(F)cc3)n2)c1`, for which the inhibition at 1 µM in the experiment filed under Homo sapiens [1] amounted to 61%. Further, the inhibition in experiment [2] came to 0%.
Take `COc1ccc(-c2nc(COc3cccc(CN(O)C(N)=O)c3)cs2)cc1`: the inhibition at 1 µM in the experiment filed under Homo sapiens [1] was 50%. Further, the inhibition in experiment [2] came to 0%.
For `Cc1oc(-c2cccs2)nc1CCOc1ccc(CN(O)C(N)=O)cc1`, the inhibition at 1 µM in the experiment filed under Homo sapiens [1] was determined as 64%. Also, the inhibition in experiment [5] was found to be 24%.
As for `Cc1oc(-c2cccc3ccccc23)nc1CCOc1ccc(CN(O)C(N)=O)cc1`, the inhibition at 1 µM in the experiment filed under Homo sapiens [1] is 42%.
Regarding `COc1cc(CN(O)C(N)=O)cc(OCc2nc(-c3ccc(C(F)(F)F)cc3)oc2C)c1`, the inhibition at 1 µM in the experiment listed under Homo sapiens [1] amounted to 0%. Further, the inhibition at 10 µM in the experiment filed under Homo sapiens [8] worked out at 59%.
Regarding `NC(=O)N(O)Cc1ccc(OCc2csc(-c3ccccc3)n2)cc1`, the inhibition at 1 µM in the experiment filed under Homo sapiens [1] was determined as 44%. In experiment [2], the inhibition is 67%.
For the molecule `Cc1oc(-c2ccc(F)cc2)nc1CCOc1ccc(CN(O)C(N)=O)cc1`, in the experiment filed under Homo sapiens [1], the inhibition at 1 µM is 70%. Further, in experiment [5], the inhibition is 66%.
Consider `COc1cc(CN(O)C(N)=O)ccc1OCc1nc(-c2ccccc2)oc1C`, for which the inhibition at 1 µM in the experiment listed under Homo sapiens [1] is 19%. Moreover, in the experiment listed under Homo sapiens [8], the inhibition at 10 µM stood at 81%.
Regarding `NC(=O)N(O)Cc1cccc(OCc2csc(-c3ccc(Cl)cc3)n2)c1`, the inhibition at 1 µM in the experiment listed under Homo sapiens [1] was 68%. For the same molecule, the inhibition stood at 0% in experiment [3] and 63% in experiment [2].
`Cc1oc(-c2ccccc2F)nc1CCOc1ccc(CN(O)C(N)=O)cc1`: the inhibition at 1 µM in the experiment listed under Homo sapiens [1] is 54%. Further, the inhibition in experiment [5] came out at 71%.
`NC(=O)N(O)Cc1ccc(OCCc2coc(-c3ccccc3)n2)cc1`: the inhibition at 1 µM in the experiment listed under Homo sapiens [1] was 47%. The inhibition in vivo at 5 mg/kg with Rattus norvegicus [6] stood at 0%.
